Test results as given in patent US20170334899A1, “AMINO-SUBSTITUTED ISOTHIAZOLES” (Bayer Pharma Aktiengesellschaft, priority 2014, published 2017).

Columns and labels:
HeLa = test: Proliferation assay (crystal violet), HeLa; assay type: cell-based; settings: Homo sapiens, HeLa, 96 h, HeLa cells; 4 days incubation; crystal violet staining; read-out: IC50 inhibition of proliferation, HeLa
Procedure, shortened: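 Absorbance at 595 nm of crystal-violet-stained cells after 4 days' exposure to 0.001–10 μM compound (0.5% DMSO). Values normalized to a day-0 plate (0%) and untreated cells (100%); IC50 by 4-parameter fit.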

[1] = tested on: human cervical tumor cell line HeLa (ATCC CCL-2); test: SAC-Formation - Nocodazole-Induced Assay; assay type: cell-based; settings: Homo sapiens, HeLa, 24 h, HeLa cells, nocodazole 0.1 μg/ml together with test compound, decrease of mitotic cells (phospho-histone H3 Ser10)
Procedure, shortened: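 Loss of phospho-histone H3 Ser10-positive cells, counted against Hoechst-stained nuclei by high-content imaging, marked mitotic breakthrough. Compounds (0.005–20 μM, 0.5% DMSO) were co-dosed with 0.1 μg/ml nocodazole onto HeLa cells for 24 h at 37 °C. Curves were fitted with a four-parameter Hill equation.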

IC50 (HeLa)	IC50 [1]	SMILES
320 nM	27 nM	CCCN1CC[C@@H](Oc2ccc(NC(=O)c3c(C)nsc3Nc3cnc(C(F)(F)F)cn3)cn2)[C@H](F)C1 [Example 371, N-(6-{[(3R,4R)-3-fluoro-1-propylpiperidin-4-yl]oxy}pyridin-3-yl)-3-methyl-5-{[5-(trifluoromethyl)pyrazin-2-yl]amino}-1,2-thiazole-4-carboxamide]
300 nM	22 nM	CCCN1CC[C@H](Oc2ccc(NC(=O)c3c(C)nsc3Nc3cnc(C(F)(F)F)cn3)cn2)[C@@H](F)C1 [Example 370, N-(6-{[(3S,4S)-3-fluoro-1-propylpiperidin-4-yl]oxy}pyridin-3-yl)-3-methyl-5-{[5-(trifluoromethyl)pyrazin-2-yl]amino}-1,2-thiazole-4-carboxamide]
350 nM	16 nM	Cc1nsc(Nc2cnc(C(F)(F)F)cn2)c1C(=O)Nc1ccc(O[C@@H]2CCN(CCC(F)(F)F)C[C@H]2F)nc1 [Example 368, N-(6-{[(3R,4R)-3-fluoro-1-(3,3,3-trifluoropropyl)piperidin-4-yl]oxy}pyridin-3-yl)-3-methyl-5-{[5-(trifluoromethyl)pyrazin-2-yl]amino}-1,2-thiazole-4-carboxamide]
350 nM	81 nM	Cc1nsc(Nc2cnc(C(F)(F)F)cn2)c1C(=O)Nc1ccc(OCCN(C)CC(F)F)nc1 [Example 349, N-(6-{2-[(2,2-difluoroethyl)(methyl)amino]ethoxy}pyridin-3-yl)-3-methyl-5-{[5-(trifluoromethyl)pyrazin-2-yl]amino}-1,2-thiazole-4-carboxamide]
8000 nM	4000 nM	Cc1nsc(Nc2cnc3ccccc3n2)c1C(=O)Nc1ccc(OC2CCCNC2)nc1 (centres unmarked) [Example 32, 3-Methyl-N-[6-(piperidin-3-yloxy)pyridin-3-yl]-5-(quinoxalin-2-ylamino)-1,2-thiazole-4-carboxannide]
1200 nM	23 nM	Cc1nsc(Nc2cnc(C(F)(F)F)cn2)c1C(=O)Nc1ccc(OC2CCCN(CC(F)F)C2)nc1 (centres unmarked) [Example 330, N-(6-{[1-(2,2-difluoroethyl)piperidin-3-yl]oxy}pyridin-3-yl)-3-methyl-5-{[5-(trifluoromethyl)pyrazin-2-yl]amino}-1,2-thiazole-4-carboxamide]
640 nM	29 nM	Cc1nsc(Nc2cnc(C(F)(F)F)cn2)c1C(=O)Nc1ccc(N2CCN(CC(F)F)CC2)nc1 [Example 359, N-{6-[4-(2,2-difluoroethyl)piperazin-1-yl]pyridin-3-yl}-3-methyl-5-{[5-(trifluoromethyl)pyrazin-2-yl]amino}-1,2-thiazole-4-carboxamide]
10000 nM	16000 nM	Cc1nsc(Nc2ccc(C#N)cn2)c1C(=O)Nc1ccc(OC2CCN(CCF)CC2)nc1 [Example 29, 5-[(5-Cyanopyridin-2-yl)amino]-N-(6-{[1-(2-fluoroethyl)piperidin-4-yl]oxy}pyridin-3-yl)-3-methyl-1,2-thiazole-4-carboxamide]
3100 nM	280 nM	Cc1nsc(Nc2cc(C#N)ccn2)c1C(=O)Nc1ccc(OC2CCCN(C(=O)OC(C)(C)C)C2)nc1 (centres unmarked) [Example 34, tert-Butyl 3({5-[({5-[(4-cyanopyridin-2-yl)amino]-3-methyl-1,2-thiazol-4-yl}-carbonyl)amino]pyridin-2-yl}oxy)piperidine-1-carboxylate]
2400 nM	1400 nM	Cc1nsc(Nc2cnc3ccccc3n2)c1C(=O)Nc1ccc(OC2CCCN(CC(F)F)C2)nc1 (centres unmarked) [Example 33, N-(6-{[1-(2,2-Difluoroethyl)piperidin-3-yl]oxy}pyridin-3-yl)-3-methyl-5-(quinoxalin-2-ylamino)-1,2-thiazole-4-carboxamide]
340 nM	110 nM	Cc1nsc(Nc2cnc(C(F)(F)F)cn2)c1C(=O)Nc1ccc(O[C@H]2CCN(CC(F)(F)F)C[C@@H]2F)nc1 [Example 363, N-(6-{[(3S,4S)-3-fluoro-1-(2,2,2-trifluoroethyl)piperidin-4-yl]oxy}pyridin-3-yl)-3-methyl-5-{[5-(trifluoromethyl)pyrazin-2-yl]amino}-1,2-thiazole-4-carboxamide]
440 nM	27 nM	Cc1nsc(Nc2cnc(C(F)(F)F)cn2)c1C(=O)Nc1ccc(F)c(OC[C@@H]2CCCN(CC(F)F)C2)c1 [Example 341, N-(3-{[(3R)-1-(2,2-difluoroethyl)piperidin-3-yl]methoxy}-4-fluorophenyl)-3-methyl-5-{[5-(trifluoromethyl)pyrazin-2-yl]amino}-1,2-thiazole-4-carboxamide]
870 nM	71 nM	Cc1nsc(Nc2cnc(C(F)(F)F)cn2)c1C(=O)Nc1ccc(OC2CCN(C(CF)CF)CC2)nc1 [Example 324, N-(6-{[1-(1,3-difluoropropan-2-yl)piperidin-4-yl]oxy}pyridin-3-yl)-3-methyl-5-{[5-(trifluoromethyl)pyrazin-2-yl]amino}-1,2-thiazole-4-carboxamide]
370 nM	61 nM	Cc1nsc(Nc2cnc(C(F)(F)F)cn2)c1C(=O)Nc1ccc(F)c(OCC2CCCN(CC(F)(F)F)C2)c1 (centres unmarked) [Example 337, N-(4-fluoro-3-{[1-(2,2,2-trifluoroethyl)piperidin-3-yl]methoxy}phenyl)-3-methyl-5-{[5-(trifluoromethyl)pyrazin-2-yl]amino}-1,2-thiazole-4-carboxamide]

More lines, now with the values behind:

SMILES	IC50 (HeLa)	IC50 [1]
Cc1nsc(Nc2cnc(C(F)(F)F)cn2)c1C(=O)Nc1ccc(C2CCN(CC(F)F)CC2)nc1 [Example 357, N-{6-[1-(2,2-difluoroethyl)piperidin-4 yl]pyridin-3-yl}-3-methyl-5-{[5-(trifluoromethyl)pyrazin-2-yl]amino}-1,2-thiazole-4-carboxamide]	430 nM	44 nM
Cc1nsc(Nc2cnc(C(F)(F)F)cn2)c1C(=O)Nc1ccc(F)c(OC[C@H]2CCN(CC(F)(F)F)C2)c1 [Example 398, N-(4-fluoro-3-{[(3S)-1-(2,2,2-trifluoroethyl)pyrrolidin-3-yl]methoxy}phenyl)-3-methyl-5-{[5-(trifluoromethyl)pyrazin-2-yl]amino}-1,2-thiazole-4-carboxamide]	490 nM	28 nM
Cc1nsc(Nc2cnc(C(F)(F)F)cn2)c1C(=O)Nc1ccc(O[C@@H]2CCCN(CC(F)(F)F)C2)nc1 [Example 386, 3-methyl-N-(6-{[(3R)-1-(2,2,2-trifluoroethyl)piperidin-3-yl]oxy}pyridin-3-yl)-5-{[5-(trifluoromethyl)pyrazin-2-yl]amino}-1,2-thiazole-4-carboxamide]	290 nM	41 nM
Cc1nsc(Nc2cnc(C(F)(F)F)cn2)c1C(=O)Nc1ccc(O[C@H]2CCN(CCC(F)(F)F)C2)nc1 [Example 384, 3-methyl-5-{[5-(trifluoromethyl)pyrazin-2-yl]amino}-N-(6-{[(3S)-1-(3,3,3-trifluoropropyl)pyrrolidin-3-yl]oxy}pyridin-3-yl)-1,2-thiazole-4-carboxamide]	340 nM	62 nM
Cc1nsc(Nc2cnc(C(F)(F)F)cn2)c1C(=O)Nc1ccc(F)c(OCC2CCCN(CCC(F)(F)F)C2)c1 (centres unmarked) [Example 338, N-(4-fluoro-3-{[1-(3,3,3-trifluoropropyl)piperidin-3-yl]methoxy}phenyl)-3-methyl-5-{[5-(trifluoromethyl)pyrazin-2-yl]amino}-1,2-thiazole-4-carboxamide]	450 nM	27 nM
Cc1nsc(Nc2cnc3ccccc3n2)c1C(=O)Nc1ccc(OC2CCCN(C(=O)OC(C)(C)C)C2)nc1 (centres unmarked) [Example 31, tert-Butyl 3-{[5-({[3-methyl-5-(quinoxalin-2-ylamino)-1,2-thiazol-4-yl]carbonyl}-amino)pyridin-2-yl]oxy}piperidine-1-carboxylate]	1200 nM	220 nM
Cc1nsc(Nc2cnc(C(F)(F)F)cn2)c1C(=O)Nc1ccc(OCCNCCC(F)(F)F)nc1 [Example 323, 3-methyl-5-{[5-(trifluoromethyl)pyrazin-2-yl]amino}-N-(6-{2-[(3,3,3-trifluoropropyl)amino]ethoxy}pyridin-3-yl)-1,2-thiazole-4-carboxamide]	950 nM	30 nM
Cc1nsc(Nc2cnc(C(F)(F)F)cn2)c1C(=O)Nc1ccc(OCC2CCCN(CCF)C2)nc1 (centres unmarked) [Example 325, N-(6-{[1-(2-fluoroethyl)piperidin-3-yl]methoxy}pyridin-3-yl)-3-methyl-5-{[5-(trifluoromethyl)pyrazin-2-yl]amino}-1,2-thiazole-4-carboxamide]	620 nM	110 nM
Cc1nsc(Nc2cnc(C(F)(F)F)cn2)c1C(=O)Nc1ccc(F)c(OC[C@@H]2CCN(CCC(F)(F)F)C2)c1 [Example 340, N-(4-fluoro-3-{[(3R)-1-(3,3,3-trifluoropropyl)pyrrolidin-3-yl]methoxy}phenyl)-3-methyl-5-{[5-(trifluoromethyl)pyrazin-2-yl]amino}-1,2-thiazole-4-carboxamide]	430 nM	33 nM
Cc1nsc(Nc2cnc(C(F)(F)F)cn2)c1C(=O)Nc1ccc(O[C@H]2CCN(CC(F)(F)F)C2)nc1 [Example 383, 3-methyl-N-(6-{[(3S)-1-(2,2,2-trifluoroethyl)pyrrolidin-3-yl]oxy}pyridin-3-yl)-5-{[5-(trifluoromethyl)pyrazin-2-yl]amino}-1,2-thiazole-4-carboxamide]	280 nM	27 nM
Cc1nsc(Nc2cnc(C(F)(F)F)cn2)c1C(=O)Nc1ccc(OCC2CCCN(CC(F)(F)F)C2)nc1 (centres unmarked) [Example 326, 3-methyl-N-(6-{[1-(2,2,2-trifluoroethyl)piperidin-3-yl]methoxy}pyridin-3-yl)-5-{[5-(trifluoromethyl)pyrazin-2-yl]amino}-1,2-thiazole-4-carboxamide]	300 nM	5.6 nM
